Reference: patent publication US20220306695A1, “COMPSTATIN ANALOGUES AND THEIR MEDICAL USES” (priority 2019, published 2022)
Read-outs that look alike come from different tables or passages of the source. Starred links: 1 amine or outer side, 2 acyl side, 3 side chain; linkers in the order of their positions; H or OH if unused. Positions of bridges follow the written chain, without caps; N, C: chain ends. Non-standard residues stand in square brackets, D forms with d. Residues, ends and D or L forms follow the SMILES beside them. Groups on a side chain read outwards from the residue. *: point of attachment. Trp(1-Me) = Cn1cc(C[C@H](N)C(=O)O)c2ccccc21; Abu(4-yl) = O=C([C@H](CC[*:3])N[*:1])[*:2]; C18 diacid = O=C(O)CCCCCCCCCCCCCCCCC(=O)*; γGlu = O=C(O)[C@H](CCC(=O)[*:2])N[*:1]; AEEA = NCCOCCOCC(=O)O; Sar = CNCC(=O)O

Assays:
Human C3 [1] = target: T1, Human C3 (Homo sapiens, UniProt P01024); assay: Affinity measurement by surface plasmon resonance (SPR) with immobilized C3; assay type: binding; settings: Table 7; immobilized C3, 25° C., pH 7.4
T1 construct: purchased Complement tech A1 13c (so in the source)

in vivo = assay: in vivo; design: species or system Cynomolgus monkeys (Macaca fascicularis); settings: male, cynomolgus monkey, sc, 1840 nmol/kg; for half-life: t½
Method in brief: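 Healthy male cynomolgus monkeys dosed once subcutaneously at 1840 nmol/kg in 20 mM phosphate pH 7.5 with mannitol. Serum sampled pre-dose to 120 h and total drug measured by SPE and LC-MS/MS. Terminal half-life calculated non-compartmentally as ln(2)/λz from the terminal log-linear phase.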

[2] = tested on: classical complement pathway; assay: In vitro haemolysis assay (inhibition of classical complement pathway); assay type: cell-based, human; settings: Table 3; human serum, sensitized sheep red blood cells; read-out: IC50[nM], in vitro analysis of inhibition of hemolysis
Method in brief: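 Serially diluted compound (9 points) was preincubated 15 min at room temperature with diluted human serum, titrated per batch to give 70-90% maximal haemolysis, in Tris/casein buffer pH 7.4 with Mg2+/Ca2+. Antibody-sensitized sheep erythrocytes were then added for 30 min at 37° C, and the reaction was stopped with EDTA. Haemolysis was read at A405, with IC50 from 4PL fit.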

[3] = assay type: physicochemical; settings: 50 mg/mL peptide; for Covalent oligomer content after 14 days 40° C. (%), F1 / Purity after 14 days 40° C. (%), F1: F1: 20 mM phosphate pH 5.5; for Covalent oligomer content after 14 days 40° C. (%), F1 / Covalent oligomer content after 14 days 40° C. (%), F2: denaturing SEC; for Purity after 14 days 40° C. (%), F1 / Purity after 14 days 40° C. (%), F2 / Purity after 14 days 40° C. (%), F3: normalized purity (HPLC)
Method in brief: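 Compstatin analogues with cystathionine or disulfide bridge held at 50 mg/mL in 20 mM phosphate pH 5.5, 6.5 or 7.5 and stored 14 days at 40 °C. At 0, 7 and 14 days, samples diluted to 2 mg/mL; purity by reverse-phase HPLC (220 nm) and covalent oligomer content by denaturing SEC (215 nm), from integrated chromatograms.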

[4] = Solubility test at 10 mg/mL (visual inspection and light scattering); assay type: physicochemical; settings: for Solubility, Condition 1 Acetate pH 4: 10 mg/mL compound in 100 mM acetate pH 4; for Solubility, Condition 2 Acetate pH 5: 10 mg/mL compound in 100 mM acetate pH 5; for Solubility, Condition 3 Phosphate pH 6: 10 mg/mL compound in 100 mM phosphate pH 6; for Solubility, Condition 4 Phosphate pH 7: 10 mg/mL compound in 100 mM phosphate pH 7; for Solubility, Condition 5 Phosphate pH 7.5: 10 mg/mL compound in 100 mM phosphate pH 7.5
Human C3 [5] = target: Human C3 (human, UniProt P01024 23-1663); assay: cell-based or functional assay
Chain of Human C3 (human, UniProt P01024 23-1663) (P01024 23-1663 limits assumed): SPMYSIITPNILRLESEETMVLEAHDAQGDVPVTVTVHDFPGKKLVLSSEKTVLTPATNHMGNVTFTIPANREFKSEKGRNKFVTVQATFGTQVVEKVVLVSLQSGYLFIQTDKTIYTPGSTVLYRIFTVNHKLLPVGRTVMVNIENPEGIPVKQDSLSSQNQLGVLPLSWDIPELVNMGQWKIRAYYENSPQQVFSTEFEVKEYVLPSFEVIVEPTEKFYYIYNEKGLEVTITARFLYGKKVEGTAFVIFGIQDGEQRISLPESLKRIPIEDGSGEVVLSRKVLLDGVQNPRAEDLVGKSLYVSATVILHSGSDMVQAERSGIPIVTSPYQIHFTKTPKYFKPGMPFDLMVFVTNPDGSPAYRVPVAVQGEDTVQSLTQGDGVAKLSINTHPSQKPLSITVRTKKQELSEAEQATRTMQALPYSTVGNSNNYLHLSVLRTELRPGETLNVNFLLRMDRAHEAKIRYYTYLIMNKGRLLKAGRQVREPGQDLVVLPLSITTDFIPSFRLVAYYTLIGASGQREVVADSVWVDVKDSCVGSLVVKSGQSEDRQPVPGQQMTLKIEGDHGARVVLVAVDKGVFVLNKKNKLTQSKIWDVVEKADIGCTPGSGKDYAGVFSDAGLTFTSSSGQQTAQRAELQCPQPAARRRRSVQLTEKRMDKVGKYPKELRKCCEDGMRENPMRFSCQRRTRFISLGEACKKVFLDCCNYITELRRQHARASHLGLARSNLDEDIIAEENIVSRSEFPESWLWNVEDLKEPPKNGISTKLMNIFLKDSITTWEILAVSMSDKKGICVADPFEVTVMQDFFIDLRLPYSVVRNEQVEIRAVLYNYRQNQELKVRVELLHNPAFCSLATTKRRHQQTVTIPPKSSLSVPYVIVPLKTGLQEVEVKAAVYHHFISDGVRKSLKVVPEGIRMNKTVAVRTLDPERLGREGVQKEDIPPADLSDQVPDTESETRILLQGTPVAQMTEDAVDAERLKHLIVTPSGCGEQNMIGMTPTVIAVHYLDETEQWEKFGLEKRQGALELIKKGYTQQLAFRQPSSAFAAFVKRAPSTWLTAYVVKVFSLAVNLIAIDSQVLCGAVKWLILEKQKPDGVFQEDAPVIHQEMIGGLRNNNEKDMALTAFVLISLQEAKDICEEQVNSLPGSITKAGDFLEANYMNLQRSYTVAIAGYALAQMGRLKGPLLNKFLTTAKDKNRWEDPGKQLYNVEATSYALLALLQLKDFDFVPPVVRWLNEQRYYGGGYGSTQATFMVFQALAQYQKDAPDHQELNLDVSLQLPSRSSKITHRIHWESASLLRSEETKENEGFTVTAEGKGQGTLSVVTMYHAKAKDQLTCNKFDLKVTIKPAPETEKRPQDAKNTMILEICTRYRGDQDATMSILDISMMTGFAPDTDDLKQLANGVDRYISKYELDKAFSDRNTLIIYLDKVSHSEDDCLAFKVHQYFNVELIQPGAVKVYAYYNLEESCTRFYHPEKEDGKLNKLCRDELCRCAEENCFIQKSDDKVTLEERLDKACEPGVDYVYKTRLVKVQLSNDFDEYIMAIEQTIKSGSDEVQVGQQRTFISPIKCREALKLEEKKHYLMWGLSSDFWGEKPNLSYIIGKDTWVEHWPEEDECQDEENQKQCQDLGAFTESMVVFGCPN

Row | Molecule | Kd (Human C3 [1]) | half-life (in vivo) | Covalent oligomer content after 14 days 40° C. (%), F1 [3] | Purity after 14 days 40° C. (%), F1 [3] | Covalent oligomer content after 14 days 40° C. (%), F2 ([3]; F2: 20 mM phosphate pH 6.5) | Purity after 14 days 40° C. (%), F2 ([3]; F2: 20 mM phosphate pH 6.5) | Covalent oligomer content after 14 days 40° C. (%), F2 ([3]; F3: 20 mM phosphate pH 7.5) | Purity after 14 days 40° C. (%), F3 ([3]; F3: 20 mM phosphate pH 7.5) | t½ (in vivo) | IC50 [2] | Solubility, Condition 1 Acetate pH 4 [4] | Solubility, Condition 2 Acetate pH 5 [4] | Solubility, Condition 3 Phosphate pH 6 [4] | Solubility, Condition 4 Phosphate pH 7 [4] | Solubility, Condition 5 Phosphate pH 7.5 [4] | CP hemolysis IC50 (Human C3 [5])
1 | CC[C@H](C)[C@@H]1NC(=O)[C@@H](NC(=O)[C@H](Cc2ccccc2)NC(=O)[C@H](CCC(=O)O)NC(=O)[C@H](CO)NC(C)=O)CSCC[C@@H](C(=O)N[C@H](C(=O)N[C@@H](CCC(=O)O)C(=O)NCC(=O)N[C@@H](CCC(=O)O)C(=O)NCCOCCOCC(=O)N[C@@H](CCC(=O)O)C(=O)N[C@@H](CO)C(=O)N[C@@H](CCCCNC(=O)CC[C@H](NC(=O)CCCCCCCCCCCCCCCCC(=O)O)C(=O)O)C(N)=O)[C@@H](C)O)NC(=O)[C@H](CCCNC(=N)N)NC(=O)[C@H](Cc2c[nH]cn2)NC(=O)[C@H](CCC(=O)O)NC(=O)CNC(=O)[C@H](Cc2c[nH]c3ccccc23)NC(=O)[C@H](CC(=O)O)NC(=O)[C@H](CCC(N)=O)NC(=O)[C@H](Cc2cn(C)c3ccccc23)NC1=O [Compound 148, Ac-SEFA(1)I[1-Me-Trp]QDWGEHRhC(1)TEGE[Peg3]ES-K([17-carboxy-heptadecanoyl][γGlu])-NH2] (Ac-SEFCI[Trp(1-Me)]QDWGEHR[Abu(4-yl)]TEGE[AEEA]ESK([γGlu-C18 diacid])-NH2; thioether 4-14) | 3.4 nM | 129 h | 0.7% | 93% | 0.0% | 97% | 0.1% | 97% | – | < 100 nM | – | – | – | – | – | –
2 | CC[C@H](C)[C@@H]1NC(=O)[C@@H](NC(=O)[C@H](Cc2ccccc2)NC(=O)[C@H](CCC(=O)O)NC(=O)[C@H](CO)NC(C)=O)CSSC[C@@H](C(=O)N(C)CC(=O)N[C@@H](CCC(=O)O)C(=O)NCC(=O)N[C@@H](CCC(=O)O)C(=O)NCCOCCOCC(=O)NCCOCCOCC(=O)N[C@@H](CCCCNC(=O)CC[C@H](NC(=O)CNC(=O)CC[C@H](NC(=O)CCCCCCCCCCCCCCCCC(=O)O)C(=O)O)C(=O)O)C(N)=O)NC(=O)[C@H](CCCNC(=N)N)NC(=O)[C@H](Cc2c[nH]cn2)NC(=O)[C@H](CCC(=O)O)NC(=O)CNC(=O)[C@H](Cc2c[nH]c3ccccc23)NC(=O)[C@H](CC(=O)O)NC(=O)[C@H](CCC(N)=O)NC(=O)[C@H](Cc2cn(C)c3ccccc23)NC1=O [Compound 123] (Ac-SEFCI[Trp(1-Me)]QDWGEHRC[Sar]EGE[AEEA][AEEA]K([γGlu-Gly-γGlu-C18 diacid])-NH2; disulfide 4-14) | 11 nM | 105 h | 52% | 56% | 48% | 54% | 45% | 54% | – | < 100 nM | – | – | – | – | – | –
3 | CC[C@H](C)[C@@H]1NC(=O)[C@@H](NC(=O)[C@H](Cc2ccc(O)cc2)NC(=O)[C@H](C)NC(=O)[C@H](CO)NC(=O)CNC(=O)[C@H](CCC(=O)O)NC(C)=O)CSSC[C@@H](C(=O)N(C)CC(=O)N[C@@H](CCC(=O)O)C(=O)N[C@@H](CCCCN)C(=O)N[C@@H](CCC(=O)N[C@@H](CCCCNC(=O)COCCOCCNC(=O)COCCOCCNC(=O)CC[C@H](NC(=O)CCCCCCCCCCCCCCCCC(=O)O)C(=O)O)C(N)=O)C(=O)O)NC(=O)[C@H](CCCNC(=N)N)NC(=O)[C@H](Cc2c[nH]cn2)NC(=O)[C@H](CCC(=O)O)NC(=O)CNC(=O)[C@H](Cc2c[nH]c3ccccc23)NC(=O)[C@H](CC(=O)O)NC(=O)[C@H](CCC(N)=O)NC(=O)[C@H](Cc2cn(C)c3ccccc23)NC1=O [Compound 111] (Ac-EGSAYCI[Trp(1-Me)]QDWGEHRC[Sar]EK[γGlu]K([AEEA-AEEA-γGlu-C18 diacid])-NH2; disulfide 6-16) | – | 157 h | 30% | 80% | 77% | 24% | 61% | 33% | – | < 100 nM | − (denotes lack of solubility at the given condition, as UV absorbance at 340 nm exceeds 0.1 AU and/or it is visibly turbid or contains particles.) | − (denotes lack of solubility at the given condition, as UV absorbance at 340 nm exceeds 0.1 AU and/or it is visibly turbid or contains particles.) | + (denotes solubility at the given condition, as determined by UV absorbance being less than 0.1 AU at 340 nm and the sample being clear when manually inspected.) | + (denotes solubility at the given condition, as determined by UV absorbance being less than 0.1 AU at 340 nm and the sample being clear when manually inspected.) | + (denotes solubility at the given condition, as determined by UV absorbance being less than 0.1 AU at 340 nm and the sample being clear when manually inspected.) | –
4 | Ac-ICVWQDWGSHRCT-NH2 (disulfide 2-12; SMILES CC[C@H](C)[C@H](NC(C)=O)C(=O)N[C@H]1CSSC[C@@H](C(=O)N[C@H](C(N)=O)[C@@H](C)O)NC(=O)[C@H](CCCNC(=N)N)NC(=O)[C@H](Cc2c[nH]cn2)NC(=O)[C@H](CO)NC(=O)CNC(=O)[C@H](Cc2c[nH]c3ccccc23)NC(=O)[C@H](CC(=O)O)NC(=O)[C@H](CCC(N)=O)NC(=O)[C@H](Cc2c[nH]c3ccccc23)NC(=O)[C@H](C(C)C)NC1=O) [Compound B] | – | – | – | – | – | – | – | – | – | – | – | – | – | – | – | 360 nM

Now from value to molecule, other results behind:

Row | Kd (Human C3 [1]) | half-life (in vivo) | Covalent oligomer content after 14 days 40° C. (%), F1 [3] | Purity after 14 days 40° C. (%), F1 [3] | Covalent oligomer content after 14 days 40° C. (%), F2 ([3]; F2: 20 mM phosphate pH 6.5) | Purity after 14 days 40° C. (%), F2 ([3]; F2: 20 mM phosphate pH 6.5) | Covalent oligomer content after 14 days 40° C. (%), F2 ([3]; F3: 20 mM phosphate pH 7.5) | Purity after 14 days 40° C. (%), F3 ([3]; F3: 20 mM phosphate pH 7.5) | t½ (in vivo) | Molecule | IC50 [2] | Solubility, Condition 1 Acetate pH 4 [4] | Solubility, Condition 2 Acetate pH 5 [4] | Solubility, Condition 3 Phosphate pH 6 [4] | Solubility, Condition 4 Phosphate pH 7 [4] | Solubility, Condition 5 Phosphate pH 7.5 [4] | CP hemolysis IC50 (Human C3 [5])
5 | 11 nM | 78.7 h | – | – | – | – | – | – | 155 h | CC[C@H](C)[C@@H]1NC(=O)[C@@H](NC(=O)[C@H](Cc2ccc(O)cc2)NC(=O)[C@H](CCC(=O)O)NC(=O)[C@H](CO)NC(C)=O)CSSC[C@@H](C(=O)N(C)CC(=O)N[C@@H](CCC(=O)O)C(=O)NCC(=O)N[C@@H](C)C(=O)N[C@@H](CCCCNC(=O)COCCOCCNC(=O)CC[C@H](NC(=O)COCCOCCNC(=O)CNC(=O)CC[C@H](NC(=O)CCCCCCCCCCCCCCCCC(=O)O)C(=O)O)C(=O)O)C(N)=O)NC(=O)[C@H](CCCNC(=N)N)NC(=O)[C@H](Cc2c[nH]cn2)NC(=O)[C@H](CCC(=O)O)NC(=O)CNC(=O)[C@H](Cc2c[nH]c3ccccc23)NC(=O)[C@H](CC(=O)O)NC(=O)[C@H](CCC(N)=O)NC(=O)[C@H](Cc2cn(C)c3ccccc23)NC1=O [Compound 118] (Ac-SEYCI[Trp(1-Me)]QDWGEHRC[Sar]EGAK([AEEA-γGlu-AEEA-Gly-γGlu-C18 diacid])-NH2; disulfide 4-14) | < 100 nM | − (denotes lack of solubility at the given condition, as UV absorbance at 340 nm exceeds 0.1 AU and/or it is visibly turbid or contains particles.) | + (denotes solubility at the given condition, as determined by UV absorbance being less than 0.1 AU at 340 nm and the sample being clear when manually inspected.) | + (denotes solubility at the given condition, as determined by UV absorbance being less than 0.1 AU at 340 nm and the sample being clear when manually inspected.) | + (denotes solubility at the given condition, as determined by UV absorbance being less than 0.1 AU at 340 nm and the sample being clear when manually inspected.) | + (denotes solubility at the given condition, as determined by UV absorbance being less than 0.1 AU at 340 nm and the sample being clear when manually inspected.) | –
6 | 5.4 nM | 93.9 h | – | – | – | – | – | – | – | CC[C@H](C)[C@@H]1NC(=O)[C@@H](NC(=O)[C@H](Cc2ccc(O)cc2)NC(=O)[C@H](C)NC(=O)[C@H](CO)NC(C)=O)CSSC[C@@H](C(=O)N(C)CC(=O)N[C@@H](CCC(=O)O)C(=O)N[C@@H](CCCCNC(=O)CC[C@H](NC(=O)CNC(=O)CC[C@H](NC(=O)CCCCCCCCCCCCCCCCC(=O)O)C(=O)O)C(=O)O)C(N)=O)NC(=O)[C@H](CCCNC(=N)N)NC(=O)[C@H](Cc2c[nH]cn2)NC(=O)[C@H](CCC(=O)O)NC(=O)CNC(=O)[C@H](Cc2c[nH]c3ccccc23)NC(=O)[C@H](CC(=O)O)NC(=O)[C@H](CCC(N)=O)NC(=O)[C@H](Cc2cn(C)c3ccccc23)NC1=O [Compound 106] (Ac-SAYCI[Trp(1-Me)]QDWGEHRC[Sar]EK([γGlu-Gly-γGlu-C18 diacid])-NH2; disulfide 4-14) | < 250 nM | – | – | – | – | – | –
